“And” between values parts separate entries of the source, which are not always exact repeats. Equal values may be shown once. Read-outs that look alike come from different tables or passages of the source.
Columns and labels:
[1] = biological target: T1, NanoLuc-PLK1 fusion protein (Homo sapiens, UniProt P53350); assay: NanoLuc thermal shift assay; assay type: cell-based; conditions: compound at 100 μM
T1 construct: NanoLuc fused to the N-termini of full-length human PLK1, PLK2, PLK3, PLK4 or p38α MAPK; expressed in transfected cells; host or cells: HeLa, transient, digitonin-permeabilised
Experimental: (§1) HeLa cells were transfected with plasmids encoding NanoLuc fused to the N-termini of full-length human PLK1, PLK2, PLK3, PLK4 or p38α MAPK. Twenty-four h after transfection, the thermal stability of the fusion proteins was tested using a modified version of the assay protocol supplied by Promega. Briefly, cells were harvested by tyrpsinisation and centrifugation, counted, and resuspended to 200,000 cells/ml in 3mls of serum-free OptiMEM media. Cells were then permeabilised using with 50ug/ml digitonin in DMSO for 5 min and incubated with test compounds at 100uM, plus protease inhibitor cocktail (Promega G6521), in a final concentration of 5% DMSO for 1 h at 37°C. After incubation, 100 μl/well of cells were aliquoted into a 96-well, thin-walled PCR plate and then heated for 3 minutes using a pre-warmed MJ Tetrad DNA Engine set to run a temperature gradient of 42 to 66°C. The plates were then cooled to room temperature for 10 min, and then 80μl of each sample was transferred to a white-walled 96-well Nunc plate before NanoBRET™ NanoGlo Substrate diluted in Opti-MEM was added. NanoLuc enzyme activity was read out within 10 min using a BMG Clariostar plate reader.
(§2) Nanoluciferase enzyme activity of PLK1- or PLK4-Nanoluc fusion protein was analysed using GraphPad Prism. Data were normalised as follows: (treatment A RLU value at X°C temp/treatment A RLU value at 42°C temp) x 100. Using the Boltzmann sigmoidal equation, a curve was then fitted to the normalised data. From this non-linear fit, a V50 value was generated, which in this context represents the aggregation onset temperature (Tagg), at which 50% of the PLK1- or PLK4-Nanoluc fusion protein has aggregated.

[2] = biological target: T2, NanoLuc-PLK4 fusion protein (Homo sapiens, UniProt O00444); assay: NanoLuc thermal shift assay; assay type: cell-based; conditions: compound at 100 μM
T2 construct: NanoLuc fused to the N-termini of full-length human PLK1, PLK2, PLK3, PLK4 or p38α MAPK; expressed in transfected cells; host or cells: HeLa, transient, digitonin-permeabilised
T2 sequence (O00444 1-970): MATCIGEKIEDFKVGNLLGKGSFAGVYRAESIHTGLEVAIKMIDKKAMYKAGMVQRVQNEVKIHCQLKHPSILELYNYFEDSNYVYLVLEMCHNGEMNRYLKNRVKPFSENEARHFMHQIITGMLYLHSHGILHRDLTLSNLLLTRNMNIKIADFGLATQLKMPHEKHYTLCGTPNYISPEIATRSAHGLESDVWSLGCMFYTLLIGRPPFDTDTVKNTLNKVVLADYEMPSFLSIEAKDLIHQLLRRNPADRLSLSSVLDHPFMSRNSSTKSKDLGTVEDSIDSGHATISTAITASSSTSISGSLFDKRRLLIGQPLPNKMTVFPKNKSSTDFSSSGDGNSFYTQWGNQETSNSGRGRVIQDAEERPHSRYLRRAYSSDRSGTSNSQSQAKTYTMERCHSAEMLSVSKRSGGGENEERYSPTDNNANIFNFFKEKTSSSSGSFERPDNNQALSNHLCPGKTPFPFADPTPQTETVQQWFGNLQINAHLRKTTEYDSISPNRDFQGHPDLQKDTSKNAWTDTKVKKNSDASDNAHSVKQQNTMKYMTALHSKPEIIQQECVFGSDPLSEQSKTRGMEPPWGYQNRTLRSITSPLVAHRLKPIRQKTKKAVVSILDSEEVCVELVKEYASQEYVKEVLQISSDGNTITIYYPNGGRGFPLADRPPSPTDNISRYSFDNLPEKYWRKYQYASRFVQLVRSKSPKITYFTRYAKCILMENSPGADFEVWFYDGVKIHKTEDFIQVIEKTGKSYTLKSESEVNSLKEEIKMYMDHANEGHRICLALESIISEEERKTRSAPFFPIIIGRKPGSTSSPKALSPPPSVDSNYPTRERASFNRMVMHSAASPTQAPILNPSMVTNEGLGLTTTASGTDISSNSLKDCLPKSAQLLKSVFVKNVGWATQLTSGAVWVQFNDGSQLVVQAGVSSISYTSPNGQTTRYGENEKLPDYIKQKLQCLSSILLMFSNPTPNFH
Experimental: as §1, §2

[3] = biological target: hERG ion channel (Homo sapiens, UniProt Q12809); assay: hERG ion channel activity
[4] = biological target: PLK1 PBD (Homo sapiens, UniProt P53350); assay: Fluorescence polarisation (FP) assay, PLK1 PBD; assay type: binding; parameters: PLK1 PBD (aa345-603) 84nM; GST (N, cleaved yes); made in house; host or cells: E. coli C41
Experimental: Final concentrations of assay components used in binding assays were as follows: TAMRA-labelled consensus PLK1 PBD binding phosphopeptide, 5-TAMRA-MAGPMQS(pThreonine)PLMGAKK-acid 10nM; PLK1 PBD (aa345-603) 84nM (2.5ng/μl). Assays were carried out in PBS (pH 7.4) plus 0.03% tween. DMSO controls were run alongside all experimental compounds and % inhibition normalised to these controls. Compounds were titrated 2 fold from a top concentration of 250μM giving a maximum final concentration of DMSO in the assay of 0.25%; however the assay can tolerate DMSO up to 5%. Compound and PBD protein were incubated together at 22°C for 1 hour prior to addition of the TAMRA labelled binding phosphopeptide. The total assay volume per well was 45μl. All experiments were performed in NBS black 384-well microtiter plates (Corning). Fluorescence Polarisation (FP) was read using a BMG PheraStar plate reader with a 540/590/590nm FP module and unbound 10nm TAMRA-labelled peptide set to a FP value of 35mP.

[5] = tested on: HeLa cells expressing KRAS G12D; assay: Live-cell imaging of cell fate, HeLa KRAS G12D; assay type: cell-based, human; conditions: Poloppin at GI50 dose, 3% in DMSO controls
Experimental: Five x10^4 cells were seeded on each well of 4-well coverglass Lab-Tek chambers in a volume of 800 μl. HeLa-G12D cells were induced with Doxycycline (Dox) 24h before seeding and kept in Dox for the rest of the experiment.
For live cell imaging analysis image sequences were viewed using ImageJ software and cell fate was analysed manually. Time spent in mitosis for different groups was compared with a Kruskal-Wallis test and Dunn's multiple comparison correction.

[6] = tested on: HeLa; assay: GI50 for cell killing, HeLa; assay type: cell-based; conditions: Homo sapiens

PLK1 PBD, sequence (P53350 345-603): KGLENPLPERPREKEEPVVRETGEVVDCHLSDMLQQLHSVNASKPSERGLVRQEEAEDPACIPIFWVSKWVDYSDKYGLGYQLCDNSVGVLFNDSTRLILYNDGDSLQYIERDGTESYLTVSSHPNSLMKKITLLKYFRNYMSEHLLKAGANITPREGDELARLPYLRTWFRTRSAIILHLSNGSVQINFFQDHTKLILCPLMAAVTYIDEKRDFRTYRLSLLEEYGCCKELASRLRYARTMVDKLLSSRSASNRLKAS
T1 sequence (P53350 whole entry, the tested form may be a part): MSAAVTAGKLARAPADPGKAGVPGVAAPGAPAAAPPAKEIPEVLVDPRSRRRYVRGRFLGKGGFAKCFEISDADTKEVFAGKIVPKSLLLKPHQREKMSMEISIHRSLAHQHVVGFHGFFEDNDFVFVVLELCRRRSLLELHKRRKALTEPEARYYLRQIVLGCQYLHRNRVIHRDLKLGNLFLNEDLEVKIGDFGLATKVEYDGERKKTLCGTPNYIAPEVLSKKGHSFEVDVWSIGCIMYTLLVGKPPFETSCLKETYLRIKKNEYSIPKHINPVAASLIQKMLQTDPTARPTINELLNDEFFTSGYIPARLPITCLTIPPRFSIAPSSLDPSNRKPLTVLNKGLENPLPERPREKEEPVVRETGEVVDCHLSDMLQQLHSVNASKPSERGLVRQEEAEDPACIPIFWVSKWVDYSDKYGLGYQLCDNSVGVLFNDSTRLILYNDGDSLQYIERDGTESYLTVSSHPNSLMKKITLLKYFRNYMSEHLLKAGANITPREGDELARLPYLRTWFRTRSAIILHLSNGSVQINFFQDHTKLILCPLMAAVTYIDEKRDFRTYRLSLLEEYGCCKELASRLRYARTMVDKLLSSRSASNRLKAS
hERG ion channel, sequence (Q12809 whole entry, the tested form may be a part): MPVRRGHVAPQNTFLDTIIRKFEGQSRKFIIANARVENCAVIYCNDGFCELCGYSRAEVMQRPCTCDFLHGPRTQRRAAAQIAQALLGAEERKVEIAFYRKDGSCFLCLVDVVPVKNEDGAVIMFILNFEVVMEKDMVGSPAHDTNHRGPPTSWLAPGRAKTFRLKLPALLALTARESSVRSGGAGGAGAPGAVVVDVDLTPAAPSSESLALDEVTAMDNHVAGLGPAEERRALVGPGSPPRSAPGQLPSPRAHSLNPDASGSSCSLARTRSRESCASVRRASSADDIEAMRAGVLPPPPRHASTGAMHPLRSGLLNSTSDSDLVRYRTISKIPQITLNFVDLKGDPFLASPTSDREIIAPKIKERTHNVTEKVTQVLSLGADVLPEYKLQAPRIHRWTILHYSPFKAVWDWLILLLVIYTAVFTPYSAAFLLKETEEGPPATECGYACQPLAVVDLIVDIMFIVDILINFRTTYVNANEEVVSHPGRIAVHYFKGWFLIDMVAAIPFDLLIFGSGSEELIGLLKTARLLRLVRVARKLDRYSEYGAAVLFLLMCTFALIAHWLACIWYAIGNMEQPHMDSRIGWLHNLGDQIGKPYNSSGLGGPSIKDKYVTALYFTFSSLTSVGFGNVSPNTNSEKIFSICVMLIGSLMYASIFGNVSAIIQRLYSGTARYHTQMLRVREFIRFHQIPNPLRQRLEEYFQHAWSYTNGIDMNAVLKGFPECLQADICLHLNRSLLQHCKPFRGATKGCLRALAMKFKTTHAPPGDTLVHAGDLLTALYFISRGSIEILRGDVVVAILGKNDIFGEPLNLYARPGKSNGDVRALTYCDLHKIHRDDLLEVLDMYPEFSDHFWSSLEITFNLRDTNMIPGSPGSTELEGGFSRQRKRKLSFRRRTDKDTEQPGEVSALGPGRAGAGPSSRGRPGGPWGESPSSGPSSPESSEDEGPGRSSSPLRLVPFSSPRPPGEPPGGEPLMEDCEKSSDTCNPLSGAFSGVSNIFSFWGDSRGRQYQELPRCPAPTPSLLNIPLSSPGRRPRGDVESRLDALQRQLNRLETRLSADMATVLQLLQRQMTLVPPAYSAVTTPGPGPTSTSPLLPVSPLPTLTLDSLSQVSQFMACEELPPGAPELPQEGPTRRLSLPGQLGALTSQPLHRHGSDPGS

Compound	thermal stability of NanoLuc-PLK1 [1]	thermal stability of NanoLuc-PLK4 [2]	activity against the hERG ion channel [3]	IC50 ([4]; read-out: IC50, binding of TAMRA-labeled phosphopeptide to PLK1 PBD)	frequency of death in mitosis [5]	GI50 [6]	IC50 ([4]; IC50, binding of TAMRA-labeled phosphopeptide to PLK1 PBD)
CN(C)CCNC(=O)c1ccc(-c2ccc(-c3ccc(Cl)cc3)n2-c2ccccc2C(F)(F)F)cc1 [Poloppin-II]	engages	engages	inactive	40.9 µM and 41 µM	–	–	–
O=C(O)CCc1ccc(-c2ccc(Br)cc2)n1-c1ccccc1C(F)(F)F [Poloppin]	increases the thermal stability	increases the thermal stability	–	–	36%	10 µM	26.9 µM

Reference: article PMC5563081, “Modulating Protein-Protein Interactions of the Mitotic Polo-like Kinases to Target Mutant KRAS” (Cell Chemical Biology, 2017)
